In the NIST ThermoML archive (doi:10.1021/je201102x):
Numbers after ± are expanded uncertainties.

Tests used:
[1] = 101.33 kPa, Liquid, Vibrating tube method
[2] = refractive index (Na D-line) (dimensionless); conditions: 293.15 K; 101.33 kPa; Liquid; Standard Abbe refractometry

Compound | mass density ([1]; 293.15 K) | mass density ([1]; 298.15 K) | mass density ([1]; 303.15 K) | mass density ([1]; 313.15 K) | mass density ([1]; 323.15 K) | mass density ([1]; 333.15 K) | refractive index [2]
CC(C)CO [2-methyl-1-propanol] | 801.99 ± 0.24 kg/m3 | 798.13 ± 0.24 kg/m3 | 794.24 ± 0.24 kg/m3 | 786.28 ± 0.24 kg/m3 | 778.09 ± 0.24 kg/m3 | 769.6 ± 0.24 kg/m3 | 1.3929 ± 0.0008
CCC(C)(C)O [2-methylbutan-2-ol] | 808.98 ± 0.14 kg/m3 | 804.39 ± 0.15 kg/m3 | 799.75 ± 0.15 kg/m3 | 790.27 ± 0.15 kg/m3 | 780.46 ± 0.16 kg/m3 | 770.27 ± 0.16 kg/m3 | 1.4016 ± 0.0008
CC(=O)O [acetic acid] | 1049.31 ± 0.08 kg/m3 | 1043.65 ± 0.08 kg/m3 | 1037.99 ± 0.07 kg/m3 | 1026.68 ± 0.07 kg/m3 | 1015.36 ± 0.07 kg/m3 | 1004.01 ± 0.07 kg/m3 | 1.3687 ± 0.0008

The remaining lines, values ahead:

mass density ([1]; 293.15 K) | mass density ([1]; 298.15 K) | mass density ([1]; 303.15 K) | mass density ([1]; 313.15 K) | mass density ([1]; 323.15 K) | mass density ([1]; 333.15 K) | refractive index [2] | Compound
806.75 ± 0.24 kg/m3 | 802.62 ± 0.24 kg/m3 | 798.43 ± 0.24 kg/m3 | 789.75 ± 0.24 kg/m3 | 780.65 ± 0.24 kg/m3 | 771.1 ± 0.24 kg/m3 | 1.3943 ± 0.0008 | CCC(C)O (stereo not given) [butan-2-ol]
993.56 ± 0.09 kg/m3 | 988.15 ± 0.1 kg/m3 | 982.75 ± 0.1 kg/m3 | 971.96 ± 0.1 kg/m3 | 961.16 ± 0.11 kg/m3 | 950.35 ± 0.11 kg/m3 | 1.3835 ± 0.0008 | CCC(=O)O [propanoic acid]
